Entries after “also recorded” stand apart in the source; their conditions may differ. Where two headings read alike, the source gives them in different places. Non-standard residues stand in square brackets, D forms with d. No end group written: not given here. aminoindane‑type D2R agonist pharmacophore = not defined here; N(4-hydroxyphenethyl)Gly = O=C(O)CNCCc1ccc(O)cc1; biphenyltriazole = not defined here
Assays:
[1] = target: T1, hD4.4R (Homo sapiens, UniProt P21917); assay: [3H]spiperone displacement, membranes from CHO cells stably expressing hD4.4R; format: binding
T1 construct: expressed in transfected cells
T1 sequence (P21917 1-419): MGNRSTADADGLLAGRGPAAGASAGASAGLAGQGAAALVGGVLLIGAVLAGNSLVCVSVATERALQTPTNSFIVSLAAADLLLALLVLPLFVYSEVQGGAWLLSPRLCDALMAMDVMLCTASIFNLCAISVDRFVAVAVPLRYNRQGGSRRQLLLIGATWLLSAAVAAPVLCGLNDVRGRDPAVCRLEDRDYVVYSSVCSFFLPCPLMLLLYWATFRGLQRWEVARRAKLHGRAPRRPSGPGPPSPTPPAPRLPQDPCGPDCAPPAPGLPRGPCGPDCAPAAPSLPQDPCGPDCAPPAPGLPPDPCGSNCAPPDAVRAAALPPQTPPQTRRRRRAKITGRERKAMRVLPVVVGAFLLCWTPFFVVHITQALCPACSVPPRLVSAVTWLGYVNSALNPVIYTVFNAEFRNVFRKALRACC

[2] = target: D2LR/NTS1R (Homo sapiens, UniProt P14416+P30989); assay: [3H]spiperone displacement, membranes from HEK 293 T cells coexpressing D2LR and NTS1R; settings: D2LR:NTS1R 1:2; mean ± s.e.m.
D2LR/NTS1R, sequence (P14416 whole entry): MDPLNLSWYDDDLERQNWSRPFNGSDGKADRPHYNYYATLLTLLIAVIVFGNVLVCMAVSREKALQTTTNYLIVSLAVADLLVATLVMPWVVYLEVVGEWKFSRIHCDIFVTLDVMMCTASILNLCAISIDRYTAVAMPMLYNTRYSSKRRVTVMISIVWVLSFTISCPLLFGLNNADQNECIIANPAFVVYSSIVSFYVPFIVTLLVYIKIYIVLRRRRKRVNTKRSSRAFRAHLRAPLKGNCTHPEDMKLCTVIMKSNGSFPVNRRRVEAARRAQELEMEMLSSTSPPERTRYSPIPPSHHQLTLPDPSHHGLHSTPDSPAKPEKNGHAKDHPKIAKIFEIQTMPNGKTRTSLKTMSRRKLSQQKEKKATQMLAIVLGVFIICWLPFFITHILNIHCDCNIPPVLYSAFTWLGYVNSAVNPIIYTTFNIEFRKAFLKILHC
D2LR/NTS1R, sequence (P30989 whole entry): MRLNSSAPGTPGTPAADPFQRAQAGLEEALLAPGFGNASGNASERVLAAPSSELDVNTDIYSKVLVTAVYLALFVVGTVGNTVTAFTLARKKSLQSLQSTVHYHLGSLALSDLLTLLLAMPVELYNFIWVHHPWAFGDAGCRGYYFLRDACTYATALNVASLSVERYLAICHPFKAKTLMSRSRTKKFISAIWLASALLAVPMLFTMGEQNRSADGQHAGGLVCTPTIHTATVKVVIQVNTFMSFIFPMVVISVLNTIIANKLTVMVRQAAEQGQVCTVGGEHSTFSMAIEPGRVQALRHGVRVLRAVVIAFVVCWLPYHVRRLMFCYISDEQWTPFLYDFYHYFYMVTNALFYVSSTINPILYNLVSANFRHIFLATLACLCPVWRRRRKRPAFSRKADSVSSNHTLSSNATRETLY

[3] = target: porcine striatal membranes (D2LR, NTS1R); assay: [3H]spiperone displacement, porcine striatal membranes; format: binding; settings: porcine striatum
[4] = target: T2, hD3R (Homo sapiens, UniProt P35462); assay: [3H]spiperone displacement, membranes from CHO cells stably expressing hD3R; format: binding
T2 construct: expressed in transfected cells
T2 sequence (P35462 whole entry): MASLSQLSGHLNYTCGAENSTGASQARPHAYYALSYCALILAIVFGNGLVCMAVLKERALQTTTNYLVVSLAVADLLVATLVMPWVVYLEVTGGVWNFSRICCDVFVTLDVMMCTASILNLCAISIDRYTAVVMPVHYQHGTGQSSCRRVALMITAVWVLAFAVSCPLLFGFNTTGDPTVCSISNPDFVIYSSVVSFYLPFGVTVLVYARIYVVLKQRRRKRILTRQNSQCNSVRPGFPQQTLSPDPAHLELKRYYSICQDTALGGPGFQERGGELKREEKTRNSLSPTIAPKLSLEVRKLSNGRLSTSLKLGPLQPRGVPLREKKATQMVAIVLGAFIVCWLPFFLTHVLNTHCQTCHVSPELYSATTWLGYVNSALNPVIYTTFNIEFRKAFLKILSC

[5] = target: T3, hNTS2R (Homo sapiens, UniProt O95665); assay: [3H]NT(8-13) displacement, homogenates from transiently transfected HEK 293T cells, human NTS2R; format: binding
T3 construct: host or cells: HEK 293T
T3 sequence (O95665 whole entry): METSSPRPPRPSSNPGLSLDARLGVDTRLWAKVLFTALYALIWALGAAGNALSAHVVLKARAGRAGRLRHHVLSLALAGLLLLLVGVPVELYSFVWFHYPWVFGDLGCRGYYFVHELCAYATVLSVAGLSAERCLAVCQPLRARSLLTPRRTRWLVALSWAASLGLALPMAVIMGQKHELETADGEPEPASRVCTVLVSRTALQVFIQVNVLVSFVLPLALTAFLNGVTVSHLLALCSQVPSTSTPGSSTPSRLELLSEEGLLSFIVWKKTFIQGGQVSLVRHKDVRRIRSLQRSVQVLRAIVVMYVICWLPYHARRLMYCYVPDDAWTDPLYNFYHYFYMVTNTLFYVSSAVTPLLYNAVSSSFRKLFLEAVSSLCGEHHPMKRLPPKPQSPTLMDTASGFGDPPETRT

[6] = target: T4, D2R (Homo sapiens, UniProt P14416); assay: Antagonist effect on quinpirole-mediated inhibition of cAMP accumulation, HEK 293T cells expressing D2R; format: cell-based
T4 construct: expressed in transfected cells; host or cells: HEK 293 T
T4 sequence (P14416 1-414 isoform P14416-2): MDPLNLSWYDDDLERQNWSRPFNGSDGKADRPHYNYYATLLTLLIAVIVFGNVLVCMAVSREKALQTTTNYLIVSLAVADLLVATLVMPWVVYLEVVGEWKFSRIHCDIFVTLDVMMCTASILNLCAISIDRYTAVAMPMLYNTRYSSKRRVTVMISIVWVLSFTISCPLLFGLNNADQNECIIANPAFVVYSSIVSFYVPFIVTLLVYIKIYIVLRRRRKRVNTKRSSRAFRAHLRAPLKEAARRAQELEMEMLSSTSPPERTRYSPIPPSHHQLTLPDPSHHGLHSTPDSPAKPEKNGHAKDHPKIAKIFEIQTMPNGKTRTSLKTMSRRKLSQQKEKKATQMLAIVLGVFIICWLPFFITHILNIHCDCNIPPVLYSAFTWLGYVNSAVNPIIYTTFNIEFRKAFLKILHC

[7] = target: T5, D2SR (Homo sapiens, UniProt P14416); assay: cAMP BRET assay (CAMYEL biosensor), HEK 293 T cells expressing D2SR; format: cell-based; settings: 10 μM forskolin
T5 construct: expressed in transfected cells; host or cells: HEK 293 T
T5 sequence (P14416 1-414 isoform P14416-2): as above

[8] = target: T6, D2R_D80A/NTS1R (Homo sapiens, UniProt P14416+P30989, D80A); assay: β-arrestin-2 recruitment (DiscoveRx PathHunter), ProLink-tagged signalling incompetent D2R_D80A coexpressed with NTS1R; format: cell-based
T6 construct: host or cells: HEK 293 stably expressing EA-tagged β-arrestin-2
T6 sequence (P14416 1-414 isoform P14416-2 D80A): as the sequence (P14416 1-414 isoform P14416-2) above, with D80A counted along it
T6 sequence (P30989 whole entry): as the sequence (P30989 whole entry) above

[9] = target: T7, D2R/NTS1R heterodimer (D2LR and NTS1R coexpressed in HEK 293 T membranes), P14416; assay: +1 uM NT(8-13); settings: N-homotyrosine (NhTyr) in place of tyrosine
T7 sequence (P14416 whole entry, chain 1 of 2): as the sequence (P14416 whole entry) above
T7 sequence (P30989 whole entry, chain 2 of 2, further chain): as the sequence (P30989 whole entry) above

[10] = target: T7, D2R/NTS1R heterodimer (D2LR and NTS1R …); assay: monophasic; settings: N-homotyrosine (NhTyr) in place of tyrosine; N-terminus carries a 22-atom polyethylene glycol-based spacer, a biphenyltriazole moiety and a 2-methoxyphenylpiperazine D2R antagonist pharmacophore

In the case of `CCCN(CCCCc1cn(-c2ccc(-c3ccc(C(=O)NCCOCCOCCOCCOCCOCCOCCC(=O)NCCOCCOCCOCCOCCOCCOCCC(=O)NCCOCCOCCOCCOCCOCCOCCC(=O)NCCOCCOCCOCCOCCOCCOCCC(=O)N[C@@H](CCCNC(=N)N)C(=O)N[C@@H](CCCNC(=N)N)C(=O)N4CCC[C@H]4C(=O)N[C@@H](Cc4ccc(O)cc4)C(=O)N[C@H](C(=O)N[C@@H](CC(C)C)C(=O)O)[C@@H](C)CC)cc3)cc2)nn1)C1Cc2ccccc2C1` [3d], the Ki [1] is reported as 0.18 ± 0.04 µM and the “Fraction high (fraction representing the high-affinity binding site)” value (“Fraction high” below) [2] is reported as 53 ± 6%.

For `CCc1cc(Cl)c(OC)c(C(=O)NC[C@@H]2C[C@@H](OCCCCc3cn(-c4ccc(-c5ccc(C(=O)NCCOCCOCCOCCOCCOCCOCCC(=O)NCCOCCOCCOCCOCCOCCOCCC(=O)NCCOCCOCCOCCOCCOCCOCCC(=O)N[C@@H](CCCNC(=N)N)C(=O)N[C@@H](CCCNC(=N)N)C(=O)N6CCC[C@H]6C(=O)N[C@@H](Cc6ccc(O)cc6)C(=O)N[C@H](C(=O)N[C@@H](CC(C)C)C(=O)O)[C@@H](C)CC)cc5)cc4)nn3)CN2CC)c1O` [1c], the Ki [1] was 0.42 ± 0.1 µM and the “Fraction high” value [2] was 66 ± 5%.

For `CCCN(CCCCc1cn(-c2ccc(-c3ccc(C(=O)NCCOCCOCCOCCOCCOCCOCCC(=O)NCCOCCOCCOCCOCCOCCOCCC(=O)N[C@@H](CCCNC(=N)N)C(=O)N[C@@H](CCCNC(=N)N)C(=O)N4CCC[C@H]4C(=O)N(CCc4ccc(O)cc4)CC(=O)N[C@H](C(=O)N[C@@H](CC(C)C)C(=O)O)[C@@H](C)CC)cc3)cc2)nn1)C1Cc2ccccc2C1` [3f], the Ki ([3]; read-out: Ki (monophasic), striatal membranes, absence of NT(8-13)) was 0.028 ± 0.016 µM, the Ki ([3]; read-out: Ki in the presence of […] μM NT(8-13), striatal membranes, monophasic) was 0.029 ± 0.005 µM and the Ki [1] was 0.071 ± 0.004 µM. For the same molecule, the Ki [4] was 0.0011 ± 0.0001 µM and the Ki [5] was 0.02 µM.

`CC[C@H](C)[C@H](NC(=O)CN(CCc1ccc(O)cc1)C(=O)[C@@H]1CCCN1C(=O)[C@H](CCCNC(=N)N)NC(=O)[C@H](CCCNC(=N)N)NC(=O)CCOCCOCCOCCOCCOCCOCCNC(=O)c1ccc(-c2ccc(-n3cc(CCCCN4CCN(c5ccccc5OC)CC4)nn3)cc2)cc1)C(=O)N[C@@H](CC(C)C)C(=O)O` [2e] was tested, and the Ki [4] was 0.0058 ± 0.0013 µM and the Ki [5] was 0.02 µM.

`CCc1cc(Cl)c(OC)c(C(=O)NC[C@@H]2C[C@@H](OCCCCc3cn(-c4ccc(-c5ccc(C(=O)NCCOCCOCCOCCOCCOCCOCCC(=O)NCCOCCOCCOCCOCCOCCOCCC(=O)N[C@@H](CCCNC(=N)N)C(=O)N[C@@H](CCCNC(=N)N)C(=O)N6CCC[C@H]6C(=O)N[C@@H](Cc6ccc(O)cc6)C(=O)N[C@H](C(=O)N[C@@H](CC(C)C)C(=O)O)[C@@H](C)CC)cc5)cc4)nn3)CN2CC)c1O` [1b] was tested, and the Ki [1] was 0.85 ± 0.75 µM, the “Fraction high” value [2] was 31 ± 6% and the “antagonist behaviour at D2R (in words)” value ([6]; 10 nM quinpirole) was “inverse agonists; also recorded: inverse agonist effect”. The “decrease of the basal response (inverse agonist effect on basal cAMP level)” value ([6]; 10 nM quinpirole) was 32%.

Molecule `CCCN(CCCCc1cn(-c2ccc(-c3ccc(C(=O)NCCOCCOCCOCCOCCOCCOCCC(=O)N[C@@H](CCCNC(=N)N)C(=O)N[C@@H](CCCNC(=N)N)C(=O)N4CCC[C@H]4C(=O)N[C@@H](Cc4ccc(O)cc4)C(=O)N[C@H](C(=O)N[C@@H](CC(C)C)C(=O)O)[C@@H](C)CC)cc3)cc2)nn1)C1Cc2ccccc2C1` [3a] has a Ki [1] of 0.025 ± 0.01 µM.

`CCc1cc(Cl)c(OC)c(C(=O)NC[C@@H]2C[C@@H](OCCCCc3cn(-c4ccc(-c5ccc(C(=O)NCCOCCOCCOCCOCCOCCOCCC(=O)N[C@@H](CCCNC(=N)N)C(=O)N[C@@H](CCCNC(=N)N)C(=O)N6CCC[C@H]6C(=O)N[C@@H](Cc6ccc(O)cc6)C(=O)N[C@H](C(=O)N[C@@H](CC(C)C)C(=O)O)[C@@H](C)CC)cc5)cc4)nn3)CN2CC)c1O` [1a] showed a Ki [1] of 0.47 ± 0.42 µM.

With `CCCN(CCCCc1cn(-c2ccc(-c3ccc(C(=O)NCCOCCOCCOCCOCCOCCOCCC(=O)NCCOCCOCCOCCOCCOCCOCCC(=O)NCCOCCOCCOCCOCCOCCOCCC(=O)N[C@@H](CCCNC(=N)N)C(=O)N[C@@H](CCCNC(=N)N)C(=O)N4CCC[C@H]4C(=O)N[C@@H](Cc4ccc(O)cc4)C(=O)N[C@H](C(=O)N[C@@H](CC(C)C)C(=O)O)[C@@H](C)CC)cc3)cc2)nn1)C1Cc2ccccc2C1` [3c] the Ki [1] was 0.08 ± 0.026 µM, the “Fraction high” value [2] was 50 ± 4% and the “effect on forskolin-induced cAMP accumulation, cells expressing D2R only (in words)” value [7] was “stimulates D2R similar to quinpirole”.

For `CC[C@H](C)[C@H](NC(=O)[C@H](Cc1ccc(O)cc1)NC(=O)[C@@H]1CCCN1C(=O)[C@H](CCCNC(=N)N)NC(=O)[C@H](CCCNC(=N)N)NC(=O)CCOCCOCCOCCOCCOCCOCCNC(=O)CCOCCOCCOCCOCCOCCOCCNC(=O)CCOCCOCCOCCOCCOCCOCCNC(=O)CCOCCOCCOCCOCCOCCOCCNC(=O)c1ccc(-c2ccc(-n3cc(CCCCN4CCN(c5ccccc5OC)CC4)nn3)cc2)cc1)C(=O)N[C@@H](CC(C)C)C(=O)O` [2d], the Ki [1] was 0.37 ± 0.05 µM and the “Fraction high” value [2] was 62 ± 3%.

In the case of `CC[C@H](C)[C@H](NC(=O)CN(CCc1ccc(O)cc1)C(=O)[C@@H]1CCCN1C(=O)[C@H](CCCNC(=N)N)NC(=O)[C@H](CCCNC(=N)N)NC(=O)CCOCCOCCOCCOCCOCCOCCNC(=O)CCOCCOCCOCCOCCOCCOCCNC(=O)c1ccc(-c2ccc(-n3cc(CCCCN4CCN(c5ccccc5OC)CC4)nn3)cc2)cc1)C(=O)N[C@@H](CC(C)C)C(=O)O` [2f], the Ki [1] is reported as 0.26 ± 0.17 µM.

With `CC[C@H](C)[C@H](NC(=O)[C@H](Cc1ccc(O)cc1)NC(=O)[C@@H]1CCCN1C(=O)[C@H](CCCNC(=N)N)NC(=O)[C@H](CCCNC(=N)N)NC(=O)CCOCCOCCOCCOCCOCCOCCNC(=O)c1ccc(-c2ccc(-n3cc(CCCCN4CCN(c5ccccc5OC)CC4)nn3)cc2)cc1)C(=O)N[C@@H](CC(C)C)C(=O)O` [2a] the Ki [1] was 0.062 ± 0.004 µM and the Ki [4] was 0.0027 ± 0.0001 µM.

For `CCc1cc(Cl)c(OC)c(C(=O)NC[C@@H]2C[C@@H](OCCCCc3cn(-c4ccc(-c5ccc(C(=O)NCCOCCOCCOCCOCCOCCOCCC(=O)NCCOCCOCCOCCOCCOCCOCCC(=O)NCCOCCOCCOCCOCCOCCOCCC(=O)NCCOCCOCCOCCOCCOCCOCCC(=O)N[C@@H](CCCNC(=N)N)C(=O)N[C@@H](CCCNC(=N)N)C(=O)N6CCC[C@H]6C(=O)N[C@@H](Cc6ccc(O)cc6)C(=O)N[C@H](C(=O)N[C@@H](CC(C)C)C(=O)O)[C@@H](C)CC)cc5)cc4)nn3)CN2CC)c1O` [1d], the Ki [1] was 0.44 ± 0.19 µM, the “Fraction high” value [2] was 51 ± 5% and the Ki [4] was 0.0016 ± 0.0004 µM.

In the case of `CC[C@H](C)[C@H](NC(=O)[C@H](Cc1ccc(O)cc1)NC(=O)[C@@H]1CCCN1C(=O)[C@H](CCCNC(=N)N)NC(=O)[C@H](CCCNC(=N)N)NC(=O)CCOCCOCCOCCOCCOCCOCCNC(=O)CCOCCOCCOCCOCCOCCOCCNC(=O)CCOCCOCCOCCOCCOCCOCCNC(=O)c1ccc(-c2ccc(-n3cc(CCCCN4CCN(c5ccccc5OC)CC4)nn3)cc2)cc1)C(=O)N[C@@H](CC(C)C)C(=O)O` [2c], the “concentration of maximum effect (bell-shaped curve), D2R_D80A/NTS1R” value [8] is reported as 300 nM, the Ki [1] is reported as 0.43 ± 0.22 µM and the “Fraction high” value [2] is reported as 61 ± 2%. The “effect on forskolin-induced cAMP accumulation, cells expressing D2R only (in words)” value [7] was “only weakly activates D2R”.

In the case of `CCc1cc(Cl)c(OC)c(C(=O)NC[C@@H]2CCCN2CC)c1O` [eticlopride, reference compound], the IC50 [6] is reported as 0.0031 µM, the “antagonist behaviour at D2R (in words)” value [6] is reported as “inverse agonists; also recorded: inverse agonist effect” and the “decrease of the basal response (inverse agonist effect on basal cAMP level)” value [6] is reported as 22%.

{2‑methoxyphenylpiperazine D2R antagonist pharmacophore-biphenyltriazole-PEG spacer 44‑atom}-RRP[N(4-hydroxyphenethyl)Gly]IL (reading uncertain) [bivalent control compound 2f] was tested, and the Ki ([9]; N-terminus carries a 44-atom polyethylene glycol-based spacer, a biphenyltriazole moiety and a 2-methoxyphenylpiperazine D2R antagonist pharmacophore) was 0.2 µM.

In the case of {aminoindane‑type D2R agonist pharmacophore-biphenyltriazole-PEG spacer 22‑atom}-RRP[N(4-hydroxyphenethyl)Gly]IL (reading uncertain) [bivalent control compound 3e], the Ki ([9]; N-terminus carries a 22-atom polyethylene glycol-based spacer, a biphenyltriazole moiety and an aminoindane-type D2R agonist pharmacophore) is reported as 0.059 µM.

For {2‑methoxyphenylpiperazine D2R antagonist pharmacophore-biphenyltriazole-PEG spacer 22‑atom}-RRP[N(4-hydroxyphenethyl)Gly]IL (reading uncertain) [bivalent control compound 2e], the Ki ([9]; N-terminus carries a 22-atom polyethylene glycol-based spacer, a biphenyltriazole moiety and a 2-methoxyphenylpiperazine D2R antagonist pharmacophore) was 0.096 µM and the Ki [10] was 0.03 µM.

Reference: article PMC4963535, “Structure-guided development of heterodimer-selective GPCR ligands” (Nature Communications, 2016)
